Assay [1] has as its system guinea pig platelets. As to the kind of experiment: Ex vivo/vitro inhibition of platelet aggregation after administration via the gastric route in guinea pigs. The arrangement: species or system guinea pig (Dunkin-Hartley). To be noted: fasted guinea pigs; for inhibition at 10 mg/kg / inhibition at 150 mg/kg: Cavia porcellus, Platelet. On the procedure:
A study of the inhibitory activity of the compounds of formula I on platelet aggregation was carried out in vitro, i.e. by direct contact of solutions of variable concentrations of the compounds with platelets freshly separated from a sample of total blood, taken under standardized conditions, from laboratory animals (guinea pigs) and from healthy human subjects who have not received any substances or drugs that might interfere with blood clotting. The anti-platelet-aggregating activity was also studied ex vivo/vitro, i.e. after administration of the substances claimed to guinea pigs to measure the intensity and duration of the anti-aggregating action induced by the fraction of the test product absorbed and circulating in the blood. Evaluation of the anti-platelet-aggregating activity of the compounds is carried out in the same guinea pigs as those mentioned above (Dunkin-Hartley strain). […] The allocation of the treatments to the animals is random. The blood is taken and then treated under the same conditions as those described above for the in vitro studies. The results of the inhibition of the platelet aggregation obtained for each test concentration make it possible to calculate the IC50 concentration of each test product and the kinetics of the inhibitory effect and its duration of action.

Assay [2] deals with guinea pig platelets. Briefly: In vitro inhibition of collagen-induced platelet aggregation, guinea pig platelets (PRP). To be noted: collagen 1 μg/ml, 3 minutes of contact at 37° C. It counts as cell-based, guinea pig (male Dunkin-Hartley). On the procedure: A study of the inhibitory activity of the compounds of formula I on platelet aggregation was carried out in vitro, i.e. by direct contact of solutions of variable concentrations of the compounds with platelets freshly separated from a sample of total blood, taken under standardized conditions, from laboratory animals (guinea pigs) and from healthy human subjects who have not received any substances or drugs that might interfere with blood clotting. The anti-platelet-aggregating activity was also studied ex vivo/vitro, i.e. after administration of the substances claimed to guinea pigs to measure the intensity and duration of the anti-aggregating action induced by the fraction of the test product absorbed and circulating in the blood.
Blood is taken by intracardiac puncture from male Dunkin-Hartley guinea pigs (weighing about 330 g), at a rate of 4.5 ml per 0.5 ml of trisodium citrate (concentration of the aqueous solution: 1.55%) in order to prevent all trace of clotting. The platelet-rich plasma (PRP) is obtained by centrifuging the tubes of total blood for 15 minutes at 150 g.
The PRPs are collected as "pools". The platelets contained in these pools are counted using a Coulter ZM haematology automatic device: if necessary, a dilution is carried out in order for the platelet concentration in the plasma to be between 200,000 and 400,000 platelets/mm^3. Simultaneously, other samples of these pools serve to prepare the platelet-poor plasma (PPP) by centrifugation at 1500 g for 15 minutes.
The kinetic study of the platelet aggregation is carried out by adding a collagen solution (1 μg/ml) to a volume of PRP, using a Chrono-log Corporation aggregometer (490-D1 or 560 VS) which uses an optical detection of the appearance of the thrombus.
The measurements of the aggregation inhibition are carried out after 3 minutes of contact at 37° C. with agitation.

Setting [3] is: 10 mg/kg, 1 h before blood sampling, read-out: % of g.r. inhibition guinea pig ex vivo, d = 10 mg/kg, 1 h.
[4] abbreviates: 10 mg/kg, 2 h before blood sampling, read-out: % of g.r. inhibition guinea pig ex vivo, d = 10 mg/kg, 2 h.
The mark [5] stands for this setting: Cavia porcellus, Platelet, 0.05 h.
[6] abbreviates: 1 h before blood sampling, read-out: % of g.r. inhibition guinea pig ex vivo, d = 150 mg/kg, 1 h.
The mark [7] stands for this setting: 2 h before blood sampling, read-out: % of g.r. inhibition guinea pig ex vivo, d = 150 mg/kg, 2 h.

Where a name gives a salt, the structure may show the parent alone. Read-outs that look alike come from different tables or passages of the source.

What is called IC50 is the concentration needed to halve the response being measured. Read a low IC50 as greater potency in that assay.

In the case of `O=C(CNC(=O)C(CCC1CCNCC1)CCC1CCNCC1)NCC(NS(=O)(=O)c1cc2ccccc2o1)C(=O)O` (stereo not drawn) [Example 68, 2-[(1-Benzofuran-2-ylsulphonyl)amino]-3-{[2-({4-(4-piperidyl)-2-[2-(4-piperidyl)ethyl]butanoyl}amino)acetyl]amino}propanoic Acid Dihydrochloride], the inhibition at 10 mg/kg in the assay with guinea pig platelets [1] (setting [3]) is -72%; in the assay with guinea pig platelets [1] (setting [4]), -71%. The IC50 in the assay with guinea pig platelets [2] (setting [5]) was 180 nM.
On to `O=C(CNC(=O)C(CCC1CCNCC1)CCC1CCNCC1)NCC(NS(=O)(=O)c1ccc2c(c1)CCO2)C(=O)O` (stereo not drawn) [Example 64, 2-[(2,3-Dihydro-1-benzofuran-5-ylsulphonyl)amino]-3-{[2-({4-(4-piperidyl)-2-[2-(4-piperidyl)ethyl]butanoyl}amino)acetyl]amino}propanoic Acid Dihydrochloride], for which the inhibition at 10 mg/kg in the assay with guinea pig platelets [1] (setting [3]) was -65%; in the assay with guinea pig platelets [1] (setting [4]), -5%. Also, the 50% inhibitory concentration (IC50) in the assay with guinea pig platelets [2] (setting [5]) was determined as 370 nM.
On to `O=C(CNC(=O)C(CCC1CCNCC1)CCC1CCNCC1)NCC(NS(=O)(=O)c1cccc2cccnc12)C(=O)O` (stereo not drawn) [Example 47, 2-[(8-Quinolinylsulphonyl)amino]-3-{[2-({4-(4-piperidyl)-2-[2-(4-piperidyl)ethyl]butanoyl}amino)acetyl]amino}propanoic Acid Trihydrochloride], for which the inhibition at 10 mg/kg with guinea pig platelets [1] (setting [3]) was -4%; in the assay with guinea pig platelets [1] (setting [4]) it was -17%. In the assay on guinea pig platelets [2] (setting [5]), the midpoint of inhibition, the IC50, lay at 1900 nM.
Turning to `Cc1ccc(S(=O)(=O)NC(CNC(=O)CNC(=O)C(CCC2CCNCC2)CCC2CCNCC2)C(=O)O)cc1` (stereo not drawn) [Example 39, 2-{[(4-Methylphenyl)sulphonyl]amino}-3-{[2-({4-(4-piperidyl)-2-[2-(4-piperidyl)ethyl]butanoyl}amino)acetyl]amino}propanoic Acid Dihydrochloride], the inhibition at 10 mg/kg in the assay with guinea pig platelets [1] (setting [3]) is -32%; in the assay on guinea pig platelets [1] (setting [4]) it was -10%. This compound also yielded a half-inhibitory concentration (IC50) in the assay on guinea pig platelets [2] (setting [5]) of 250 nM.
Turning to `O=C(CNC(=O)C(CCC1CCNCC1)CCC1CCNCC1)NCC(NS(=O)(=O)c1ccc2c(c1)CCCC2)C(=O)O` (stereo not drawn) [Example 72, 2-[(5,6,7,8-Tetrahydro-2-naphthalenylsulphonyl)amino]3-{[2-({4-(4-piperidyl)-2-[2-(4-piperidyl)ethyl]butanoyl}amino)acetyl]amino}propanoic Acid Dihydrochloride], the values for the inhibition at 10 mg/kg in the assay with guinea pig platelets [1] (setting [3]) and in the assay with guinea pig platelets [1] (setting [4]) were -60% and -67%, respectively. Further, inhibition with guinea pig platelets [2] (setting [5]) was half-maximal at 340 nM (IC50).
For the compound `Cc1cc(S(=O)(=O)NC(CNC(=O)CNC(=O)C(CCC2CCNCC2)CCC2CCNCC2)C(=O)O)c(C)o1` (stereo not drawn) [Example 60, 2-{[(2,5-Dimethyl-3-furyl)sulphonyl]amino}-3-{[2-({4-(4-piperidyl)-2-[2-(4-piperidyl)ethyl]butanoyl}amino)acetyl]amino}propanoic Acid Dihydrochloride], the inhibition at 10 mg/kg with guinea pig platelets [1] (setting [3]) is -53%; in the assay with guinea pig platelets [1] (setting [4]), -32%. The compound also gave a half-inhibitory concentration (IC50) in the assay on guinea pig platelets [2] (setting [5]) of 660 nM.
With `O=C(O)COc1cccc(C(CC(=O)O)NC(=O)CNC(=O)C(CCC2CCNCC2)CCC2CCNCC2)c1` (stereo not drawn) [Example 9, 3-[(3-Carboxymethoxy)phenyl]-3-{[2-({4-(4-piperidyl)-2-[2-(4-piperidyl)ethyl]butanoyl}amino)acetyl]amino}-propanoic Acid Dihydrochloride], the inhibition at 150 mg/kg with guinea pig platelets [1] (setting [6]) was -53%; in the assay with guinea pig platelets [1] (setting [7]), -5%. Moreover, in the assay on guinea pig platelets [2] (setting [5]), the IC50 was found to be 5000 nM.
Regarding `O=C(CNC(=O)C(CCC1CCNCC1)CCC1CCNCC1)NC[C@H](NS(=O)(=O)c1cccnc1)C(=O)O` [Example 56, 2-[(3-Pyridylsulphonyl)amino]3-{[2-({4-(4-piperidyl)-2-[2-(4-piperidyl)ethyl]butanoyl}amino)acetyl]amino}propanoic Acid Trihydrochloride], the inhibition at 10 mg/kg with guinea pig platelets [1] (setting [3]) is -61%; with guinea pig platelets [1] (setting [4]), -50%. The same compound displayed an IC50 in the assay on guinea pig platelets [2] (setting [5]) of 230 nM.
Consider `COc1ccc(S(=O)(=O)NC(CNC(=O)CNC(=O)C(CCC2CCNCC2)CCC2CCNCC2)C(=O)O)cc1` (stereo not drawn) [Example 46, 2-{[(4-Methoxyphenyl)sulphonyl]amino}-3-{[2-({4-(4-piperidyl)-2-[2-(4-piperidyl)ethyl]butanoyl}amino)acetyl]amino}propanoic Acid Dihydrochloride], for which the inhibition at 10 mg/kg in the assay on guinea pig platelets [1] (setting [3]) was -18%; in the assay with guinea pig platelets [1] (setting [4]) it was -31%. The concentration for half-maximal inhibition (IC50) with guinea pig platelets [2] (setting [5]) was found to be 380 nM.
Consider `O=C(CNC(=O)C(CCC1CCNCC1)CCC1CCNCC1)NCC(NS(=O)(=O)c1cccc([N+](=O)[O-])c1)C(=O)O` (stereo not drawn) [Example 45, 2-{[(3-Nitrophenyl)sulphonyl]amino}-3-{[2-({4-(4-piperidyl)-2-[2-(4-piperidyl)ethyl]butanoyl}amino)acetyl]amino}propanoic Acid Dihydrochloride], for which the results for the inhibition at 10 mg/kg with guinea pig platelets [1] (setting [3]) and with guinea pig platelets [1] (setting [4]) were -36% and -51%, respectively. Besides, in the assay with guinea pig platelets [2] (setting [5]), the IC50 was found to be 500 nM.
As for `COc1ccc(C(CC(=O)O)NC(=O)CNC(=O)C(CCC2CCNCC2)CCC2CCNCC2)cc1` (stereo not drawn) [Example 7, 3-(4-Methoxyphenyl)-3-{[2-({4-(4-piperidyl)-2-[2-(4-piperidyl)ethyl]butanoyl}amino)acetyl]amino}propanoic Acid Dihydrochloride], the inhibition at 150 mg/kg in the assay on guinea pig platelets [1] (setting [6]) is -39%; in the assay with guinea pig platelets [1] (setting [7]), 0%. Moreover, half-maximal inhibition with guinea pig platelets [2] (setting [5]) (IC50) required 10000 nM.
Regarding `Cl.Cl.O=C(CNC(=O)C(CCC1CCNCC1)CCC1CCNCC1)NCC(NS(=O)(=O)CCc1ccccc1)C(=O)O` (stereo not drawn) [Example 43, 2-[(2-Phenethylsulphonyl)amino]-3-{[2-({4-(4-piperidyl)-2-[2-(4-piperidyl)ethyl]butanoyl}amino)acetyl]amino}propanoic Acid Dihydrochloride], the “% of g.r. inhibition guinea pig ex vivo, d = 10 mg/kg, 1 h” value in the assay with guinea pig platelets [1] (10 mg/kg, 1 h before blood sampling) is reported as -15%. Also, the “% of g.r. inhibition guinea pig ex vivo, d = 10 mg/kg, 2 h” value with guinea pig platelets [1] (10 mg/kg, 2 h before blood sampling) is listed as -4%. Moreover, in the assay on guinea pig platelets [2], 1200 nM corresponded to half-maximal inhibition (IC50).
`O=C(CNC(=O)C(CCC1CCNCC1)CCC1CCNCC1)NCC(NS(=O)(=O)c1ccc(F)c2ccccc12)C(=O)O` (stereo not drawn) [Example 62, 2-{[(4-Fluoro-1-naphthyl)sulphonyl]amino}-3-{[2-({4-(4-piperidyl)-2-[2-(4-piperidyl)ethyl]butanoyl}amino)acetyl]amino}propanoic Acid Dihydrochloride]: the inhibition at 10 mg/kg is -69% in the assay on guinea pig platelets [1] (setting [3]) and -33% with guinea pig platelets [1] (setting [4]). Also, inhibition in the assay on guinea pig platelets [2] (setting [5]) was half-maximal at 95 nM (IC50).
In the same order, the values of `O=C(CNC(=O)C(CCC1CCNCC1)CCC1CCNCC1)NCC(NS(=O)(=O)c1ccccc1-c1cccs1)C(=O)O` (stereo not drawn) [Example 66, 2-({[2-(2-Thienyl)phenyl]sulphonyl}amino) 3-{[2-({4-(4-piperidyl)-2-[2-(4-piperidyl)ethyl]butanoyl}amino)acetyl]amino}propanoic Acid Dihydrochloride] are -18%, 0% and 350 nM.
As to `Cc1nc(C)c(S(=O)(=O)NC(CNC(=O)CNC(=O)C(CCC2CCNCC2)CCC2CCNCC2)C(=O)O)s1` (stereo not drawn) [Example 54, 2-{[(2,4-Dimethyl-1,3-thiazol-5-yl)sulphonyl]amino}-3-{[2-({4-(4-piperidyl)-2-[2-(4-piperidyl)ethyl]butanoyl}amino)acetyl]amino}propanoic Acid Dihydrochloride], the figures for the inhibition at 10 mg/kg in the assay with guinea pig platelets [1] (setting [3]) and with guinea pig platelets [1] (setting [4]) were -40% and -15%, respectively. Also, the IC50 with guinea pig platelets [2] (setting [5]) turned out to be 1300 nM.
